Data on eight molecules can be found in publication PMC12344693, “Human Milk Oligosaccharides Multivalently Presented on Defined Synthetic Neo-Glycoproteins Are Nanomolar Ligands of Tandem-Repeat Galectins” (Biomacromolecules, 2025).

For assay [1], the target named is T1, Gal-4 (Homo sapiens, UniProt P56470).
T1 construct: Full-length recombinant human galectins (Gal-1, Gal-3, Gal-4, Gal-8, and Gal-9) for ELISA assays; made in house; host or cells: E. coli Rosetta 2(DE3)pLysS
T1 sequence (P56470 1-323): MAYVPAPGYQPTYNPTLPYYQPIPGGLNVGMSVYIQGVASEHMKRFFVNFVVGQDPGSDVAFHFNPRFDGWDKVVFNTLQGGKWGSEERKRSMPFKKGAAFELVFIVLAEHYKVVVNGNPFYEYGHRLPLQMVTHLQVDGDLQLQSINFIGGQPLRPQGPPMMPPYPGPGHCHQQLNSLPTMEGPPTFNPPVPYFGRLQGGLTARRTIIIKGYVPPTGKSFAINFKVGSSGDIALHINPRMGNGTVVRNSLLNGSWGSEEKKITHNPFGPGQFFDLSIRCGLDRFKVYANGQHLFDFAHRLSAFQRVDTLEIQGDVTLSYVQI
Briefly: competitive ELISA, inhibition of galectin binding to immobilized asialofetuin. Particulars: competitive ELISA vs immobilized ASF; 2.5 μM Gal-4; at least quadruplicate. (In an ELISA, binding on a coated surface is turned into a signal by an enzyme label.)
Experimental: (§1) The inhibitory potential of the prepared glycan library and the respective multivalent neo-glycoproteins with Gal-1, -3, -4, -8, and -9 was evaluated using a competitive ELISA assay as described by Vašíček et al. Asialofetuin (ASF; 0.1 μM in PBS, 50 μL/well) was immobilized onto microtiter plates (Nunc Immuno Sorb, ThermoFisher Scientific, USA) overnight at 4 °C. Wells were subsequently washed three times with PBS containing 0.05%, v/v, Tween-20 (250 μL/wash). Each assay step was followed by a washing step to ensure the thorough removal of unbound reagents. Blocking was performed using 2%, w/v, BSA in PBS (250 μL/well) for 1 h at room temperature. Serial dilutions of the inhibitors prepared in EPBS buffer (PBS containing 2 mM EDTA) were incubated with a constant concentration of galectin (2.5 μM Gal-1, Gal-3, and Gal-4; 0.5 μM Gal-8 and Gal-9) for 2 h. […] Residual galectin bound to ASF was detected using the anti-His-tag antibody conjugated to horseradish peroxidase (Santa Cruz Biotechnology, 1:999 dilution in PBS). Detection was achieved by adding 50 μL of TMB One substrate solution (Kem-En-Tech, Denmark), which developed a blue color that turned yellow upon the addition of 50 μL of 3 M HCl. Absorbance at 450 nm was measured using a microplate reader (Sunrise, Tecan Group Ltd., Switzerland) reflecting the amount of galectin bound to the wells. Half-maximal inhibitory concentration (IC50) values were calculated by nonlinear regression (dose–response inhibition with variable slope) of sigmoidal curves using GraphPad Prism version 8.4.3 (GraphPad Software, USA).
(§2) Serially diluted ligands and NGPs were incubated with individual galectin species in the wells coated with asialofetuin (ASF). The remaining galectin bound to the immobilized ASF was detected using an anti-His6 antibody.

For another assay, the target named is Gal-3 (Homo sapiens, UniProt P17931). Described as above.
Another assay concerns the target T2, Gal-8 (Homo sapiens, UniProt O00214).
T2 construct: Full-length recombinant human galectins (Gal-1, Gal-3, Gal-4, Gal-8, and Gal-9) for ELISA assays; made in house; host or cells: E. coli Rosetta 2(DE3)pLysS
T2 sequence (O00214 1-317): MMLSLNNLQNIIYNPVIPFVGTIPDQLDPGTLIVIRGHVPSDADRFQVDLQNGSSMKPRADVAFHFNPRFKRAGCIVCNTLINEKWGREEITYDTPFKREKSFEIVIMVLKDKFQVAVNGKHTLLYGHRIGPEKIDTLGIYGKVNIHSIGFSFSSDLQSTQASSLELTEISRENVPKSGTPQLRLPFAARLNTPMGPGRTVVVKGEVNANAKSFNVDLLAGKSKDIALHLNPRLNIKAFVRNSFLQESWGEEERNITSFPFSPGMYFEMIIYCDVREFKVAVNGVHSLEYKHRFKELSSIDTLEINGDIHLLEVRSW
Described as above. To be noted: competitive ELISA vs immobilized ASF; 0.5 μM Gal-8; at least quadruplicate.

A further assay addresses Gal-1 (Homo sapiens, UniProt P09382, C3S). Described as above.
The target of the next assay is T3, Gal-9 (Homo sapiens, UniProt O00182, A222P/DEL149-219).
T3 construct: Full-length recombinant human galectins (Gal-1, Gal-3, Gal-4, Gal-8, and Gal-9) for ELISA assays; made in house; host or cells: E. coli Rosetta 2(DE3)pLysS
Described as above. Particulars: competitive ELISA vs immobilized ASF; 0.5 μM Gal-9; at least quadruplicate.

The target in assay [2] is T1, Gal-4. More on the design: method as in previously published by us. Particulars: competitive ELISA vs immobilized ASF; footnote b; ref previously published by us; cited from earlier work.

Molecules are shown by their SMILES. Several values for one entry are separate records, joined by “and”; a condition that tells them apart may be missing. Equal values may be shown once. Read-outs that look alike come from different tables or passages of the source. A value given as a limit tells only on which side of the number the result lay.

Sequence of Gal-1 (P09382 whole entry C3S): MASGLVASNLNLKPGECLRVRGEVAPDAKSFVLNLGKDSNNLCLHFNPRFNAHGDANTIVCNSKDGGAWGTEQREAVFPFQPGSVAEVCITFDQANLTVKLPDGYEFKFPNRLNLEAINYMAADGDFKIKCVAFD
T3 sequence (O00182 with tags, fused parts or gaps DEL149-219/A222P): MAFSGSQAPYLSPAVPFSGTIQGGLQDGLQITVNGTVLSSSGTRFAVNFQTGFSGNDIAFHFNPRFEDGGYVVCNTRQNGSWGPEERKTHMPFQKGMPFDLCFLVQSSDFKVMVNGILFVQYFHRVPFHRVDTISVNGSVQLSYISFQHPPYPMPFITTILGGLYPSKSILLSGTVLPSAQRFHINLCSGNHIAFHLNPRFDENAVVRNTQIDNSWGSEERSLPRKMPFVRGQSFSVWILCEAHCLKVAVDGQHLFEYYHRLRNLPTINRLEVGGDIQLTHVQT
Sequence of Gal-3 (P17931 whole entry): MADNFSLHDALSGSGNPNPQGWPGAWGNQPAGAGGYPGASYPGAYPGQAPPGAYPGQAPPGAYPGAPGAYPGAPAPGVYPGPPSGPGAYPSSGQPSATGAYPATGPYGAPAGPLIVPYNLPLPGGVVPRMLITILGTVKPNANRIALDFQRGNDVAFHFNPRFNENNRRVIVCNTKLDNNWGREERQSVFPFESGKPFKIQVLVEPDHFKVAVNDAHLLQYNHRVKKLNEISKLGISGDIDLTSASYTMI
Experimental for Gal-1: as §1, §2
Experimental for Gal-3: as §1, §2
Experimental for Gal-8: as §1, §2
Experimental for Gal-9: as §1, §2

On to `CC(=O)N[C@@H]1[C@@H](O)[C@H](O[C@@H]2O[C@H](CO)[C@H](O)[C@H](O[C@@H]3O[C@H](CO)[C@@H](O)[C@H](O[C@@H]4O[C@H](CO)[C@H](O)[C@H](O)[C@H]4O)[C@H]3NC(C)=O)[C@H]2O)[C@@H](CO)O[C@H]1NC(=S)NCCNC(=O)OC(C)(C)C` [Compound 9, (tert-Butoxycarbonylamino)ethylthioureidyl β-D-galactopyranosyl-(1→3)-2-acetamido-2-deoxy-β-D-glucopyranosyl-(1→3)-β-D-galactopyranosyl-(1→4)-2-acetamido-2-deoxy-β-D-glucopyranoside], for which the IC50 – broadly, the concentration needed to halve the response being measured – was 2380 ± 670 µM at Gal-4 [1]; 27 ± 4 µM at Gal-3 (read-out: IC50 Gal-3, Table S9, competitive ELISA vs immobilized ASF, […] Gal-3, unit inferred); over 5000 µM on Gal-8; over 500 µM on Gal-1; over 5000 µM on Gal-9.

On to `CC(=O)N[C@H]1[C@H](O[C@H]2[C@@H](O)[C@@H](CO)O[C@@H](O[C@H]3[C@H](O)[C@@H](O)[C@H](NC(=S)NCCNC(=O)OC(C)(C)C)O[C@@H]3CO)[C@@H]2O)O[C@H](CO)[C@@H](O)[C@@H]1O[C@@H]1O[C@H](CO)[C@H](O)[C@H](O)[C@H]1O` [Compound 3, (tert-Butoxycarbonylamino)ethylthioureidyl β-D-galactopyranosyl-(1→3)-2-acetamido-2-deoxy-β-D-glucopyranosyl-(1→3)-β-D-galactopyranosyl-(1→4)-β-D-glucopyranoside], for which the half-inhibitory concentration (IC50) was 108 ± 16 µM on Gal-4 [1]; 15.2 ± 1 µM at Gal-3; 820 ± 140 µM on Gal-8; over 500 µM on Gal-1; 230 ± 43 µM on Gal-9.

Turning to `CC(=O)N[C@H]1[C@H](O[C@H]2[C@@H](O)[C@@H](CO)O[C@@H](O[C@H]3[C@H](O)[C@@H](O)[C@H](NC(=S)NCCNC(=O)OC(C)(C)C)O[C@@H]3CO)[C@@H]2O)O[C@H](CO)[C@@H](O[C@@H]2O[C@H](CO)[C@H](O)[C@H](O)[C@H]2O)[C@@H]1O` [Compound 4, (tert-Butoxycarbonylamino)ethylthioureidyl β-D-galactopyranosyl-(1→4)-2-acetamido-2-deoxy-β-D-glucopyranosyl-(1→3)-β-D-galactopyranosyl-(1→4)-β-D-glucopyranoside], the IC50 on Gal-3 is 7.3 ± 1.6 µM; on Gal-8, 130 ± 30 µM; on Gal-1, 436 ± 41 µM; at Gal-4 [2] it was 620 ± 100 µM; on Gal-9, 170 µM and 168 µM.

Regarding `CC(=O)N[C@@H]1[C@@H](O)[C@H](O[C@@H]2O[C@H](CO)[C@H](O)[C@H](O[C@@H]3O[C@H](CO)[C@@H](O[C@@H]4O[C@H](CO)[C@H](O)[C@H](O)[C@H]4NC(C)=O)[C@H](O)[C@H]3NC(C)=O)[C@H]2O)[C@@H](CO)O[C@H]1NC(=S)NCCNC(=O)OC(C)(C)C` [Compound 11, (tert-Butoxycarbonylamino)ethylthioureidyl 2-acetamido-2-deoxy-β-D-galactopyranosyl-(1→4)-2-acetamido-2-deoxy-β-D-glucopyranosyl-(1→3)-β-D-galactopyranosyl-(1→4)-2-acetamido-2-deoxy-β-D-glucopyranoside], the half-maximal inhibitory concentration (IC50) on Gal-4 [1] was found to be 2010 ± 1000 µM; on Gal-3, 2.7 ± 2.4 µM; on Gal-8 it was 270 ± 85 µM; at Gal-1 it was 98 ± 22 µM; on Gal-9 it was 260 ± 75 µM.

For `CC(=O)N[C@@H]1[C@@H](O)[C@H](O[C@@H]2O[C@H](CO)[C@H](O)[C@H](O)[C@H]2O)[C@@H](CO)O[C@H]1NC(=S)NCCNC(=O)OC(C)(C)C` [Compound 7, Galβ4GlcNAc-tBoc], the IC50 at Gal-4 [1] worked out at 8630 ± 530 µM; on Gal-3, 47 ± 6 µM; on Gal-8, 18700 µM; at Gal-1, 79 ± 9 µM; at Gal-9 it was 2840 ± 650 µM.

`CC(C)(C)OC(=O)NCCNC(=S)N[C@@H]1O[C@H](CO)[C@@H](O[C@@H]2O[C@H](CO)[C@H](O)[C@H](O)[C@H]2O)[C@H](O)[C@H]1O` [Compound 1, (tert-butoxycarbonylamino)ethylthioureidyl β-D-galactopyranosyl-(1→4)-β-D-glucopyranoside]: the half-maximal inhibitory concentration (IC50) at Gal-3 was 136 ± 18 µM; on Gal-8, 2870 ± 470 µM; on Gal-1 it was 286 ± 23 µM; at Gal-4 [2], 2520 ± 180 µM; at Gal-9 it was 2180 ± 670 µM.

`CC(=O)N[C@H]1[C@H](O[C@H]2[C@@H](O)[C@@H](CO)O[C@@H](O[C@H]3[C@H](O)[C@@H](O)[C@H](NC(=S)NCCNC(=O)OC(C)(C)C)O[C@@H]3CO)[C@@H]2O)O[C@H](CO)[C@@H](O[C@@H]2O[C@H](CO)[C@H](O)[C@H](O)[C@H]2NC(C)=O)[C@@H]1O` [Compound 5, (tert-Butoxycarbonylamino)ethylthioureidyl 2-acetamido-2-deoxy-β-D-galactopyranosyl-(1→4)-2-acetamido-2-deoxy-β-D-glucopyranosyl-(1→3)-β-D-galactopyranosyl-(1→4)-2-β-D-glucopyranoside]: the IC50 on Gal-4 [1] was 1620 ± 260 µM; on Gal-3 it was 2.2 ± 1.3 µM; at Gal-8, 75 ± 9 µM; on Gal-1, 435 ± 102 µM; at Gal-9 it was 326 ± 26 µM.

Consider `CC(=O)N[C@@H]1[C@@H](O)[C@H](O[C@@H]2O[C@H](CO)[C@H](O)[C@H](O[C@@H]3O[C@H](CO)[C@@H](O[C@@H]4O[C@H](CO)[C@H](O)[C@H](O)[C@H]4O)[C@H](O)[C@H]3NC(C)=O)[C@H]2O)[C@@H](CO)O[C@H]1NC(=S)NCCNC(=O)OC(C)(C)C` [Compound 10, (tert-Butoxycarbonylamino)ethylthioureidyl β-D-galactopyranosyl-(1→4)-2-acetamido-2-deoxy-β-D-glucopyranosyl-(1→3)-β-D-galactopyranosyl-(1→4)-2-acetamido-2-deoxy-β-D-glucopyranoside], for which the IC50 on Gal-4 [1] was found to be 2390 ± 490 µM; on Gal-3, 12 ± 1 µM; at Gal-8, 406 ± 46 µM; at Gal-1, 106 ± 7 µM; on Gal-9, 52 ± 23 µM.
